# In US8637510B2, “Morpholinothiazoles as alpha 7 positive allosteric modulators” (Janssen Pharmaceutica NV, priority 2009, dated 2014):
# Counter-ions that a name gives are not always drawn.
# What was measured:
# [1] = biological target: T1, human alpha 7-wt nAChR (Homo sapiens, UniProt P36544); experiment: Ca2+ flux imaging (FDSS) (Protocol B); format: cell-based; settings: for EC50: potentiation of 100 μM choline, compounds 0.01 μM to 30 μM, read-out: a7-PAM-G_[33]_pEC50 pEC50 (converted); for Emax: read-out: a7-PAM-G_[33]_Eff_Curve_FI % Efficacy
# T1 construct: expressed in transfected cells
# T1 sequence (P36544 23-502): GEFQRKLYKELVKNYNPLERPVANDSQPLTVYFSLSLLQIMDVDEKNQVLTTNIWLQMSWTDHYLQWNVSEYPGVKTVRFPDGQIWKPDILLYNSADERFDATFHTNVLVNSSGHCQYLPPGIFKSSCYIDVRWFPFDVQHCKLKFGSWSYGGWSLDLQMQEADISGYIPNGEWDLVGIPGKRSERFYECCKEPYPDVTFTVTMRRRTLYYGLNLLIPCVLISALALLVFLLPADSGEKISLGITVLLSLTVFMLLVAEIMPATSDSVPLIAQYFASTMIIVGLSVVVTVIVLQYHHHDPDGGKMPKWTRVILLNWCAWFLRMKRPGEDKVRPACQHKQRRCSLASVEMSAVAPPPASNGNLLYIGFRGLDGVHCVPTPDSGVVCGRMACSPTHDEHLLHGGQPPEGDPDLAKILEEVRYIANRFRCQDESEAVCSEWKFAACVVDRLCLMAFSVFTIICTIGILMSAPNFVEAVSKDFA
# Procedure, shortened: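 Fluo-4AM-loaded cells expressing human α7-wt nAChR, in HBSS with 10 mM HEPES, 5 mM CaCl2, 0.1% BSA, received compound (0.01–30 μM), typically 10 min before 100 μM choline, with calcium flux read in real time. Potentiation is relative to choline alone (100%); EC50 from sigmoidal curves.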
# [2] = efficacy of 100 μM choline defined as 100% in the absence of a PAM
melting point [°C],EC50 [1] [µM],"Emax [1, 2] [%]","a7-PAM-G_[33]_Eff_Curve_FI % Efficacy [1, 2] [%]",Structure (SMILES)
184,0.295,–,–,"Cc1cc(-c2sc(N3CC(C)OC(C)C3)nc2CNC(=O)c2ccc(Cl)cc2)cc(C)n1 (racemic) [Compound 58, 4-chloro-N-[[2-[2,6-dimethyl-4-morpholinyl]-5-(2,6-dimethyl-4-pyridinyl)-4-thiazolyl]methyl]-benzamide]"
166,1.62,938,–,"Cc1cc(-c2sc(N3CC(C)OC(C)C3)nc2CNC(=O)c2cc(C)on2)cc(C)n1 (racemic) [Compound 59, N-[[2-[2,6-dimethyl-4-morpholinyl]-5-(2,6-dimethyl-4-pyridinyl)-4-thiazolyl]methyl]-5-methyl-3-isoxazolecarboxamide]"
148,0.038,–,883,"Cc1cc(-c2sc(N3CC(C)OC(C(F)(F)F)C3)nc2CNC(=O)CC2CC2)cc(C)n1 (racemic) [Compound 205, N-[[5-(2,6-dimethyl-4-pyridinyl)-2-[2-methyl-6-(trifluoromethyl)-4-morpholinyl]-4-thiazolyl]methyl]-cyclopropaneacetamide]"
185,0.0813,–,–,"Cc1cc(-c2sc(N3CCOC(C)C3)nc2CNC(=O)c2ccc(F)cc2C)cc(C)n1 (single isomer, unassigned) [Compound 70, N-[[5-(2,6-dimethyl-4-pyridinyl)-2-[(2S*)-2-methyl-4-morpholinyl]-4-thiazolyl]methyl]-4-fluoro-2-methyl-benzamide]"
138,2,–,–,"Cc1cc(C(=O)NCc2nc(N3CCOC(C)C3)sc2-c2cc(C)nc(C)c2)on1 (single isomer, unassigned) [Compound 72, N-[[5-(2,6-dimethyl-4-pyridinyl)-2-[(2S*)-2-methyl-4-morpholinyl]-4-thiazolyl]methyl]-3-methyl-5-isoxazolecarboxamide]"
167,2,–,–,"Cc1cc(-c2sc(N3CCOC(C)C3)nc2CNC(=O)c2cc(C)on2)cc(C)n1 (single isomer, unassigned) [Compound 74, N-[[5-(2,6-dimethyl-4-pyridinyl)-2-[(2R*)-2-methyl-4-morpholinyl]-4-thiazolyl]methyl]-5-methyl-3-isoxazolecarboxamide]"
188,0.107,809,–,"Cc1cc(-c2sc(N3CCOC(C)C3)nc2CNC(=O)c2ccc(F)cc2C)cc(C)n1 (single isomer, unassigned) [Compound 77, N-[[5-(2,6-dimethyl-4-pyridinyl)-2-[(2R*)-2-methyl-4-morpholinyl]-4-thiazolyl]methyl]-4-fluoro-2-methyl-benzamide]"
166,1.66,–,–,"Cc1cc(-c2sc(N3CCOC(C)C3)nc2CNC(=O)c2cc(C)on2)cc(C)n1 (single isomer, unassigned) [Compound 79, N-[[5-(2,6-dimethyl-4-pyridinyl)-2-[(2S*)-2-methyl-4-morpholinyl)-4-thiazolyl]methyl]-5-methyl-3-isoxazolecarboxamide]"
156,0.115,–,–,"Cc1cc(-c2sc(N3CC(C)OC(C(F)(F)F)C3)nc2CNC(=O)CC2CC2)cc(C)n1 (single isomer, unassigned) [Compound 133, N-[[5-(2,6-dimethyl-4-pyridinyl)-2-[2-methyl-6-(trifluoromethyl)-4-morpholinyl]-4-thiazolyl]methyl]-cyclopropaneacetamide]"
150,0.0437,985,–,"Cc1cc(-c2sc(N3CC(C)OC(C(F)(F)F)C3)nc2CNC(=O)CC2CC2)cc(C)n1 (single isomer, unassigned) [Compound 206, N-[[5-(2,6-dimethyl-4-pyridinyl)-2-[2-methyl-6-(trifluoromethyl)-4-morpholinyl]-4-thiazolyl]methyl]-cyclopropaneacetamide]"
185,0.132,599,–,"Cc1cc(-c2sc(N3C[C@@H](C)O[C@@H](C)C3)nc2CNC(=O)c2ccc(Cl)c(Cl)c2)cc(C)n1 [Compound 35, 3,4-dichloro-N-[[2-[(2R,6S)-2,6-dimethyl-4-morpholinyl]-5-(2,6-dimethyl-4-pyridinyl)-4-thiazolyl]methyl]-benzamide]"
189,0.0741,869,–,"Cc1cc(-c2sc(N3C[C@@H](C)O[C@@H](C)C3)nc2CNC(=O)c2ccc(F)c(F)c2)cc(C)n1 [Compound 36, N-[[2-[(2R,6S)-2,6-dimethyl-4-morpholinyl]-5-(2,6-dimethyl-4-pyridinyl)-4-thiazolyl]methyl]-3,4-difluoro-benzamide]"
150,–,293,–,"COCC(=O)NCc1nc(N2C[C@@H](C)O[C@@H](C)C2)sc1-c1cc(C)nc(C)c1 [Compound 37, N-[[2-[(2R,6S)-2,6-dimethyl-4-morpholinyl]-5-(2,6-dimethyl-4-pyridinyl)-4-thiazolyl]methyl]-2-methoxy-acetamide]"
–,1.45,702,–,"Cc1cc(-c2sc(N3CCOC(C)(C)C3)nc2CNC(=O)c2conc2C)cc(C)n1 [Compound 182, N-[[2-(2,2-dimethyl-4-morpholinyl)-5-(2,6-dimethyl-4-pyridinyl)-4-thiazolyl]methyl]-3-methyl-4-isoxazolecarboxamide•HCl]"
–,2.75,–,–,"Cc1cc(-c2sc(N3CCOC(C)(C)C3)nc2CNC(=O)C(C)C)cc(C)n1 [Compound 183, N-[[2-(2,2-dimethyl-4-morpholinyl)-5-(2,6-dimethyl-4-pyridinyl)-4-thiazolyl]methyl]-2-methyl-propanamide]"
–,4.79,835,–,"Cc1cc(-c2sc(N3CCOC[C@@H]3C)nc2CNC(=O)c2conc2C)cc(C)n1 [Compound 185, N-[[5-(2,6-dimethyl-4-pyridinyl)-2-[(3S)-3-methyl-4-morpholinyl]-4-thiazolyl]methyl]-3-methyl-4-isoxazolecarboxamide]"
–,3.8,945,–,"Cc1cc(-c2sc(N3CCOC[C@@H]3C)nc2CNC(=O)c2cc(C)on2)cc(C)n1 [Compound 186, N-[[5-(2,6-dimethyl-4-pyridinyl)-2-[(3S)-3-methyl-4-morpholinyl]-4-thiazolyl]methyl]-5-methyl-3-isoxazolecarboxamide]"
–,5.01,685,–,"Cc1cc(-c2sc(N3CCOC[C@@H]3C)nc2CNC(=O)C(C)C)cc(C)n1 [Compound 188, N-[[5-(2,6-dimethyl-4-pyridinyl)-2-[(3S)-3-methyl-4-morpholinyl]-4-thiazolyl]methyl]-2-methyl-propanamide]"
–,0.00724,–,–,"Cc1cc(-c2sc(N3C[C@@H](C)O[C@@H](C(F)(F)F)C3)nc2CNC(=O)CC2CC2)cc(C)n1 [Compound 203, N-[[5-(2,6-dimethyl-4-pyridinyl)-2-[(2R,6R)-2-methyl-6-(trifluoromethyl)-4-morpholinyl]-4-thiazolyl]methyl]-cyclopropaneacetamide]"
–,0.0316,392,–,"Cc1cc(-c2sc(N3C[C@@H](C(F)(F)F)O[C@@H](C)C3)nc2CNC(=O)CC2CC2)cc(C)n1 [Compound 204, N-[[5-(2,6-dimethyl-4-pyridinyl)-2-[(2S,6S)-2-methyl-6-(trifluoromethyl)-4-morpholinyl]-4-thiazolyl]methyl]-cyclopropaneacetamide]"
